# In patent US9868935B2, “Composition and method of stem cells for preservation of cardiac tissue” (CRIOESTAMINAL, SAÚDE E TECNOLOGIA, SA., priority 2012, dated 2018):
# Tests used:
# CD34+ cells = test: CD34+ cell proliferation after hypoxia 24 h then normoxia 6 days; assay type: cell-based, human; conditions: LPA 100 μM; 24 h hypoxia + 6 days normoxia (7 days period)
# Text: LPA is highly mitogenic for quiescent cells. The mitogenic action of LPA involves the activation of a pertussis toxin-insensitive G protein with subsequent Ca^2+ mobilization and stimulation of protein kinase C, release of arachidonic acid in a GTP-dependent manner, and activation of a pertussis toxinsensitive Gi protein mediating inhibition of adenylate cyclase (van Corven, E. J., et al., Lysophosphatidate-induced cell proliferation: identification and dissection of signaling pathways mediated by G proteins. Cell, 1989. 59(1): p. 45-54). To determine whether LPA can induce the proliferation of CD34+ cells, a suspension of untreated or LPA-treated cells (2×10^^5 cells in 200 μL of X-vivo medium) was exposed to hypoxia for 24 h and then cultured under normoxia conditions for 6 additional days. LPA-treated cells increased their number approximately 3-fold over the 7 days period while untreated cells decreased to half of their initial number (FIG. 3A).
# [1] = tested on: human umbilical cord blood derived CD34+ cells; test: CD34+ cell survival in hypoxia and serum deprived conditions (Annexin V/PI flow cytometry); assay type: cell-based; conditions: for percentage of viable cells: LPA-treated (100 μM)
# Procedure: In an embodiment, UCB CD34+ cells (1×10^^6 cells/mL) were incubated in X-Vivo media (Lonza) in a hypoxia chamber for 24 h (0.5% of O2 and 5% of CO2), in the presence or absence of pharmacological drugs, for further assessment of cell survival/apoptosis and necrosis by FACS analysis of the expression of annexin V and PI respectively. Preferably, cells were pretreated with the respective drugs for 1 hour before hypoxia, and treatment maintained during hypoxia.
# In a preferred embodiment, to identify molecules that promote CD34+ cell survival in hypoxia and serum deprived conditions we developed an assay that uses human umbilical cord blood derived CD34+ cells (2×10^^5 cells per well of a 96-well plate) suspended in X-Vivo medium (used in clinical trials (Schachinger, V., et al., Intracoronary bone marrow-derived progenitor cells in acute myocardial infarction. N Engl J Med, 2006. 355(12): p. 1210-21)) and incubated in a hypoxia chamber at 0.5% O2, at 37° C., for 24 h. Some of the drugs selected have been approved by FDA for the treatment of cardiovascular diseases (e.g. Nebivolol Lombardo, R. M., et al., Effects of nebivolol versus carvedilol on left ventricular function in patients with chronic heart failure and reduced left ventricular systolic function. Am J Cardiovasc Drugs, 2006. 6(4): p. 259-63; Ibersatan Massie, B. M., et al., Irbesartan in patients with heart failure and preserved ejection fraction. N Engl J Med, 2008. 359(23): p. 2456-67), others are being evaluated in pre-clinical/clinical assays to improve heart function in patients/models with heart failure (e.g. INO1001 (Szabo, G., et al., INO-1001 a novel poly(ADP-ribose) polymerase (PARP) inhibitor improves cardiac and pulmonary function after crystalloid cardioplegia and extracorporal circulation. Shock, 2004. 21(5): p. 426-32); erythropoietin (Belonje, A. M., et al., Effects of erythropoietin after an acute myocardial infarction: rationale and study design of a prospective, randomized, clinical trial (HEBE III). Am Heart J, 2008. 155(5): p. 817-22); melatonin (Chen, Z., et al., Protective effect of melatonin on myocardial infarction. Am J Physiol Heart Circ Physiol, 2003. 284(5): p. H1618-24); VX-702 (Ma, X. L., et al., Inhibition of p38 mitogen-activated protein kinase decreases cardiomyocyte apoptosis and improves cardiac function after myocardial ischemia and reperfusion. Circulation, 1999. 99(13): p. 1685-91)), others are natural substances found in the human body (LPA). Cell viability was evaluated by flow cytometry using Annexin V/propidium iodide (PI) staining. Annexin V is a phospholipid-binding protein with specificity for phospatidyl serine, one of the earliest makers of cellular transition to an apoptotic state. This phospholipid is translocated from the inner to the outer leaflet of the plasma membrane (Koopman, G., et al., Annexin V for flow cytometric detection of phosphatidylserine expression on B cells undergoing apoptosis. Blood, 1994. 84(5): p. 1415-20.). PI enters in necrotic cells and binds to double-stranded nucleic acids, but is excluded from cells with normal integrity. According to FIG. 1, untreated CD34+ cells show a very poor survival, with only ˜31% of viable cells, ˜31% of apoptotic cells (Annexin V+/PI−) being the majority of the cells ˜39% at the necrotic stage (PI+). […] LPA (10 μM) was the drug with the highest pro-survival effect (˜69% of viable cells) and therefore further studied (FIGS. 1 and 2A).
# Importantly, the percentage of viable cells in CD34+ treated with 1 μM of LPA and cultured under hypoxia conditions is similar to untreated cells cultured under normoxia conditions. The pro-survival effect of LPA decreases as a function of hypoxia time (FIG. 2C). The percentage of viable cells in LPA-treated CD34+ cells decreased from 78% at day 1 to 40% at day 3.
substance,measurement,setting,value
lysophosphatidic acid [LPA],increase in cell number,CD34+ cells,approximately 3 fold
same,survival of CD34+ cells vs control (untreated cells),"[1]; 1 μM LPA, hypoxia 24 h, P<0.001, n=6",statistically significant
same,viable cells,"[1]; LPA 10 μM, hypoxia 0.5% O2, 24 h, serum free X-Vivo medium",~69%
same,percentage of viable cells,[1]; hypoxia day 1,78%
same,percentage of viable cells,[1]; hypoxia day 3,40%
same,cell survival vs untreated cells,"[1]; hypoxia 0.5% O2, 24 h, serum free, P<0.001",improved significantly
same,survival relatively to untreated cells,[1]; hypoxia and serum deprived conditions,double their survival
